The target in experiment [1] is T1, Alkaline phosphatase, tissue-nonspecific isozyme (Homo sapiens, UniProt P05186).
T1 sequence (P05186 whole entry): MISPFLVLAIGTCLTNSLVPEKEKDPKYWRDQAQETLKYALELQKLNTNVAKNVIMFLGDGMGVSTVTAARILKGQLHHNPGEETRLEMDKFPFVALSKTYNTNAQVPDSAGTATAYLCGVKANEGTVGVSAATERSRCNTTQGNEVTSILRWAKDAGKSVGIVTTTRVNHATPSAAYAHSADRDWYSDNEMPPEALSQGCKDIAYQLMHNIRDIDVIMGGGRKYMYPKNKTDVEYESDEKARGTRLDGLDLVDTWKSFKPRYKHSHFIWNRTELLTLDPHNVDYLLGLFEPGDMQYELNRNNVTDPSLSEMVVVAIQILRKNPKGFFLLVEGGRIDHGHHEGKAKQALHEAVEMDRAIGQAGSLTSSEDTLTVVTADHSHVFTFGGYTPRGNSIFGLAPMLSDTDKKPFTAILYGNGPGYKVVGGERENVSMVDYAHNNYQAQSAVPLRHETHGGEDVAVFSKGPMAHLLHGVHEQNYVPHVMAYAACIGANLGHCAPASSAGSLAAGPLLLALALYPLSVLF

Experiment [2] can be described thus: cytotoxicity in HEK-293T cells, dose response, cytotoxicity control for TCR NF-kB inhibitor project, luminescence, T-cell screen hits (AID 489026).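 Further: cells exposed to compound about 14 hours before the viability readout.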 The format is functional, cell-based.
The target of experiment [3] is T2, Eukaryotic translation initiation factor 2-alpha kinase 3 (Homo sapiens, UniProt Q9NZJ5). Kind of experiment: Dose response cell-based high-throughput screening assay to measure PERK inhibition. [Related pubchem assays: 1416 ]. The format is functional.
Experiment [4] concerns the target T2, Eukaryotic translation initiation factor 2-alpha kinase 3. In words: Counterscreen assay for PERK inhibitors: Dose response cell-based high throughput screening assay to measure inhibition of PERK at 6 hours. [Related pubchem assays: 1522, 1416 ]. The format is functional. (Counterscreens check selectivity or assay interference.)
Experiment [5] is described as follows: A cytotoxicity screen of small molecule inhibitors of the PhoP region in Salmonella typhi identified in the primary screen. [Related pubchem assays: 1850, 1864, 1985 ]. The format is functional.
Experiment [6] concerns INS1. In words: beta cell apoptosis inhibitors, cytokine rescue, dose response, luminescence, retest (AID 449756).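 Further: cell death triggered by IL-1 beta plus TNF-alpha plus IFN-gamma mixture; protective hits raise ATP signal compared with cytokine alone wells.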 Type of experiment: functional, cell-based. To be noted: Rattus norvegicus.
A short description of experiment [7]: polyadenylation inhibitors in yeast reporter, dose response, luminescence, S. cerevisiae SKY197-pL101 (AID 2525). The format is functional, cell-based.
Experiment [8] can be described thus: S. cerevisiae growth inhibition, dose response, counter-screen for polyadenylation inhibitor project, Alamar Blue fluorescence, MIC (AID 2693). Type of experiment: functional. To be noted: Saccharomyces cerevisiae.
For experiment [9], the target named is Large T antigen (Simian virus 40, UniProt P03070). The format is functional, Betapolyomavirus macacae.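 Further: Confirmatory-stage PubChem screen for compounds that inhibit SV40 T antigen.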
A short description of experiment [10]: Luminescence Cell-Based Dose Confirmation HTS to Identify Inhibitors of Polyadenylation. The format is functional.
The test system of experiment [11] is Streptococcus sp. 'group A'. In words: growth inhibition of control SK(-) GAS strain, dose response, counter-screen for streptokinase expression inhibitor project, luminescence, kanamycin, BacTiterGlo, confirmation (AID 1900). Type of experiment: functional, organism-based.
Experiment [12] in a line: cytotoxicity in HPDE-C7 cells, cell-based, fluorescence, HTS (AID 430). The format is functional. To be noted: Homo sapiens.
A short description of experiment [13]: microbe, parasite or virus in culture. The format is functional. To be noted: Mycobacterium tuberculosis.
The nature of experiment [14]: cytotoxicity in KRAS-transformed pancreatic duct cells, primary screen, cell-based, fluorescence, HTS (AID 431). The note with it: Homo sapiens. Type of experiment: functional.
The nature of experiment [15]: growth suppression of PTEN-null colon cells, dose response, cell-based, HCT116 PTEN knockout (AID 1047).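 Further: HCT116 colon tumor cells with PTEN knocked out; cells exposed to compound for 60 hours before readout; potency for loss of cell viability measured by luminescence.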 Type of experiment: functional.
The nature of experiment [16]: growth suppression of beta-catenin-knockout colon cells, dose response, cell-based, HCT116, human colon tumor (AID 1045).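 Further: HCT116 colon tumor cells with beta catenin knocked out; cells exposed to compound for 60 hours.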 The format is functional.
The target in experiment [17] is T3, Sphingosine 1-phosphate receptor 4 (Homo sapiens, UniProt O95977).
T3 sequence (O95977 whole entry): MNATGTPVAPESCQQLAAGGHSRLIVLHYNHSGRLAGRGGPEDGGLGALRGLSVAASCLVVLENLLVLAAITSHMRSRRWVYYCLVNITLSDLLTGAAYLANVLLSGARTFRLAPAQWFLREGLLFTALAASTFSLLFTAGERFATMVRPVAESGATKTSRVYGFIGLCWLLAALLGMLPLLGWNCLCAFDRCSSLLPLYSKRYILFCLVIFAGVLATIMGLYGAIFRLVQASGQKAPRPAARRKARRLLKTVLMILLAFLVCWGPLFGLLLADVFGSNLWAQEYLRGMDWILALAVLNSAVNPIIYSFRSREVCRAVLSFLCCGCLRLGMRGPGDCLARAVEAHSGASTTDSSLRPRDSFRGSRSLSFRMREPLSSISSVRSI
Kind of experiment: Fluorescence dose response cell-based high throughput screening assay for antagonists of the Sphingosine 1-Phosphate Receptor 4 (S1P4). [Related pubchem assays: 1524 (Confirmation in triplicates.), 1510 (Primary screen.)]. Type of experiment: functional.

Experiment [18] deals with Sphingosine 1-phosphate receptor 1 (Homo sapiens, UniProt P21453). The format is functional.
Experiment [19] concerns Streptococcus. In words: Group A Streptococcus viability loss, dose response, counter-screen for streptokinase expression inhibitor project, luminescence, BacTiterGlo (AID 1915).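 Further: potency for reduction of bacterial viability or growth.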 Type of experiment: functional, organism-based.
The nature of experiment [20]: THP-1 cell cytotoxicity, dose response, cytotoxicity control for non-replicating M. tuberculosis project (AID 489025). The format is functional.
Experiment [21] in a line: HepG2 cell cytotoxicity, dose response, cytotoxicity control for non-replicating M. tuberculosis project (AID 489018). To be noted: Mycobacterium tuberculosis. The format is functional.
Experiment [22] can be described thus: Vero E6 cell cytotoxicity, dose response, cytotoxicity control for non-replicating M. tuberculosis project, secondary assay (AID 492998). The format is functional, VeroE6. The note with it: Vero C1008.
In experiment [23] the target is T4, Heat shock factor protein 1 (Mus musculus, UniProt P38532).
T4 sequence (P38532 whole entry): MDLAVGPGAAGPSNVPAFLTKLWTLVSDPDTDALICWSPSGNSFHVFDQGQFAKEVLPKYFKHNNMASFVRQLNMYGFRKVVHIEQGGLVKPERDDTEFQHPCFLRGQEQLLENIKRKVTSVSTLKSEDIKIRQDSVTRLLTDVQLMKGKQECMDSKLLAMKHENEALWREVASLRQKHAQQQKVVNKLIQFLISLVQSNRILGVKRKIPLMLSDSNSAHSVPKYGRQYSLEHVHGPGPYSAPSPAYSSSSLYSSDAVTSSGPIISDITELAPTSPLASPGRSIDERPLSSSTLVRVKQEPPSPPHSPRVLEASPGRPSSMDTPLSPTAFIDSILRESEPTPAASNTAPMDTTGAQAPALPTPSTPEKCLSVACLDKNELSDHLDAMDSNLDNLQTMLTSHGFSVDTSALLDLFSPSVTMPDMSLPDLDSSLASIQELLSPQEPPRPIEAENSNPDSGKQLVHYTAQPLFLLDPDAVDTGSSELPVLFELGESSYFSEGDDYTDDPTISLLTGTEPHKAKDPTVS
Kind of experiment: HSF1 potentiators in luciferase reporter cells, confirmation, cell-based, NIH3T3, luminescence, dose retest (AID 435004).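 Further: stress induced by proteasome inhibitor MG132 added 30 min after compound; luciferase reporter driven by HSF1 response element in NIH3T3 cells; actives raise luminescence as potentiators of the MG132 stress response.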 The format is functional. (In general: A reporter such as luciferase makes a cellular process visible.)

Experiment [24] is described as follows: cells. The format is functional.
Experiment [25] in a line: Shn3 3'UTR reporter inhibitors, dose response, cell-based, Clone20 osteoblasts, firefly luciferase, cherry-picked (AID 624132).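 Further: firefly luciferase luminescence from reporter carrying the Shn3 3'UTR in osteoblasts.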 The format is functional.
Experiment [26] is described as follows: HepG2 cell cytotoxicity, dose response, cytotoxicity control for Shn3 inhibitor project, CellTiter-Glo, cherry-picked (AID 624134). Type of experiment: functional, cell-based. (In ATP-based viability assays light output follows the ATP content of the culture.)
Experiment [27] is described as follows: enhancers of respiration in Yfh1-depleted yeast, dose response, Friedreich's ataxia, plus single-dose screen (AID 1465).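 Further: yeast depleted of Yfh1p frataxin homolog grown on glycerol needing respiration; WST-1 tetrazolium dye reduction as measure of cellular dehydrogenase metabolic activity.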 Type of experiment: functional.
Experiment [28] concerns the target Serine/threonine-protein phosphatase PP1-alpha catalytic subunit (Homo sapiens, UniProt P62136). In words: PP1 phosphatase inhibitors, dose response, biochemical, fluorescence (AID 2403).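 Further: phosphatase turnover of OMFP into fluorescent 3-O-methylfluorescein.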
The target of experiment [29] is Serine/threonine-protein phosphatase (Homo sapiens, UniProt Q9BPW0). Kind of experiment: Counterscreen for inhibitors of PP1: fluorescence-based biochemical high throughput dose response assay to identify inhibitors of Protein Phosphatase 5 (PP5). [Related pubchem assays: 2034 (Summary (PP5 inhibitors)), 1987 (PP5 inhibitors in singlate), 2235 (PP1 inhibitors in singlate)].

The target in experiment [30] is Vasopressin V1a receptor (Homo sapiens, UniProt P37288). Kind of experiment: Counterscreen for Oxytocin Receptor (OXTR) agonists: Fluorescence-based cell-based high throughput dose response assay to identify agonists of the vasopressin 1 receptor (V1R). [Related pubchem assays: 2435 (Primary screen (OXTR agonists in singlicate)), 434991 (Counterscreen (V1R agonists in triplicate)), 2482 (Summary (OXTR agonists)) …. The format is functional.

In experiment [31] the target is Oxytocin receptor (Homo sapiens, UniProt P30559). Kind of experiment: Fluorescence-based cell-based high throughput dose response assay for agonists of the Oxytocin Receptor (OXTR). [Related pubchem assays: 2435 (Primary screen (OXTR agonists in singlicate)), 434991 (Counterscreen (V1R agonists in triplicate)), 2482 (Summary (OXTR agonists)), 434963 (Confirmation screen (OXTR agonists in triplicate))]. Type of experiment: functional.

In experiment [32] the target is T5, Cytochrome P450 2D6 (Homo sapiens, UniProt P10635). Kind of experiment: qHTS Assay for Inhibitors and Substrates of Cytochrome P450 2D6. [Related pubchem assays: 410 ]. Type of experiment: ADME. The note with it: read-out: Potency.
For experiment [33], the target named is Cytochrome P450 2C19 (Homo sapiens, UniProt P33261). Kind of experiment: Cytochrome panel assay with activity outcomes. Panel member name: p450-cyp2c19 Compounds with AC50 equal or less than 10 uM are considered active. Type of experiment: functional. The note with it: read-out: AC50.
Experiment [34] concerns the target T5, Cytochrome P450 2D6.
In experiment [35] the target is Voltage-gated inwardly rectifying potassium channel KCNH2 (Homo sapiens, UniProt Q12809). The note with it: Potency.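 Further: confirmatory quantitative high-throughput screen measuring inhibition of hERG channel activity.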

Activity calls are given as the source filed them. A value given as a limit tells only on which side of the number the result lay.

This note sets out measurements from ChEMBL document CHEMBL1201862, “PubChem BioAssay data set” (2004).

T2 sequence (Q9NZJ5 whole entry): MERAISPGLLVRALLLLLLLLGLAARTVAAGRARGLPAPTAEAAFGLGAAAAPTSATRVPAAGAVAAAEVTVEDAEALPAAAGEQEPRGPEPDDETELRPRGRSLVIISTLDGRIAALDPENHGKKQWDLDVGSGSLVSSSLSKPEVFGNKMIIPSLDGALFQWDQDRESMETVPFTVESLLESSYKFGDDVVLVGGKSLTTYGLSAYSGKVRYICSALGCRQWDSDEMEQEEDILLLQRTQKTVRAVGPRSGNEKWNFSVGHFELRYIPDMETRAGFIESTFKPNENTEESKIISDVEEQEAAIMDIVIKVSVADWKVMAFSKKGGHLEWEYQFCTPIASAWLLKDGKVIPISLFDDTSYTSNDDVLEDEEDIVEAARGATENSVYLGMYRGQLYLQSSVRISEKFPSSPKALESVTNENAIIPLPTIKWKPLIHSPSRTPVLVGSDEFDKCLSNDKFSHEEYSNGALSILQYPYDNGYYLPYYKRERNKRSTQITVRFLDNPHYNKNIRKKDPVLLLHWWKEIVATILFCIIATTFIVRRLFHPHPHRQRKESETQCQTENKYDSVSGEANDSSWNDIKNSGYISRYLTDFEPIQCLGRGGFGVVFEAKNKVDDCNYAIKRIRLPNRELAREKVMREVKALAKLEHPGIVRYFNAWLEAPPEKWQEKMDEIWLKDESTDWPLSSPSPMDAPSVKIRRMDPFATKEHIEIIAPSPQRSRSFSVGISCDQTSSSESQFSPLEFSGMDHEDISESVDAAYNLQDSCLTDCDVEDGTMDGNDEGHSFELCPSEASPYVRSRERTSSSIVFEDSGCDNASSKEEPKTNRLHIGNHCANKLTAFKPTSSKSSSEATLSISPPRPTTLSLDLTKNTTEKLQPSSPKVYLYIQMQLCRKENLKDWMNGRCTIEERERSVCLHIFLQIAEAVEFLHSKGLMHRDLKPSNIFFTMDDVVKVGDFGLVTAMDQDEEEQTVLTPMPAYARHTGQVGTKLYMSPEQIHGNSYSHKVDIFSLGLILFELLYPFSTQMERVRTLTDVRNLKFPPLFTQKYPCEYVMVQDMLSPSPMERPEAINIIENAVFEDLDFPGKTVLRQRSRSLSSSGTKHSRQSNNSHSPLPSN
T5 sequence (P10635 whole entry): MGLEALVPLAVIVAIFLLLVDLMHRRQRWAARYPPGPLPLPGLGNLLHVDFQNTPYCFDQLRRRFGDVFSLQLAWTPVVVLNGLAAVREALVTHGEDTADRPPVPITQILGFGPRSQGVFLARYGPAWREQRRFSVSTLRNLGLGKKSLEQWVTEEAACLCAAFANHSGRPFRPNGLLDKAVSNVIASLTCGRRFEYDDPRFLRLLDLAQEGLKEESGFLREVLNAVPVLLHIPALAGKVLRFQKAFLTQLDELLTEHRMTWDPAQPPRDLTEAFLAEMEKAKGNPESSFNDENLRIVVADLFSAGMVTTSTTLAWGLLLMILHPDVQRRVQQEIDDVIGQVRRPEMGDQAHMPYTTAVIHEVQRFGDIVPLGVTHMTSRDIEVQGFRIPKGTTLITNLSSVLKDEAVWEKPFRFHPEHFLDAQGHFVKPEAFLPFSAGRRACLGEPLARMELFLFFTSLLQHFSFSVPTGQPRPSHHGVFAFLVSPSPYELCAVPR
Vasopressin V1a receptor, sequence (P37288 whole entry): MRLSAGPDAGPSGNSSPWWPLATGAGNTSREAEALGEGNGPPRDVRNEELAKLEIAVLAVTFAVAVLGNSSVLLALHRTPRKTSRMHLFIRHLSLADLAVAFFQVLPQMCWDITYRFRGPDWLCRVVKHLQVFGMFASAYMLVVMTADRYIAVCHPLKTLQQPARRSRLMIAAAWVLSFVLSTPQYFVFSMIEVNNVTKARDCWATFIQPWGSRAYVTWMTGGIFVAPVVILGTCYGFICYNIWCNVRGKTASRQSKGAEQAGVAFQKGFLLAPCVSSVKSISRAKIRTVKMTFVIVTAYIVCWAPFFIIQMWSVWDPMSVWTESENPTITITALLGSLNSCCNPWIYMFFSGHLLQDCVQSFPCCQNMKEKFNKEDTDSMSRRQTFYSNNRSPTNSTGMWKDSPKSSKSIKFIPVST
Cytochrome P450 2C19, sequence (P33261 whole entry): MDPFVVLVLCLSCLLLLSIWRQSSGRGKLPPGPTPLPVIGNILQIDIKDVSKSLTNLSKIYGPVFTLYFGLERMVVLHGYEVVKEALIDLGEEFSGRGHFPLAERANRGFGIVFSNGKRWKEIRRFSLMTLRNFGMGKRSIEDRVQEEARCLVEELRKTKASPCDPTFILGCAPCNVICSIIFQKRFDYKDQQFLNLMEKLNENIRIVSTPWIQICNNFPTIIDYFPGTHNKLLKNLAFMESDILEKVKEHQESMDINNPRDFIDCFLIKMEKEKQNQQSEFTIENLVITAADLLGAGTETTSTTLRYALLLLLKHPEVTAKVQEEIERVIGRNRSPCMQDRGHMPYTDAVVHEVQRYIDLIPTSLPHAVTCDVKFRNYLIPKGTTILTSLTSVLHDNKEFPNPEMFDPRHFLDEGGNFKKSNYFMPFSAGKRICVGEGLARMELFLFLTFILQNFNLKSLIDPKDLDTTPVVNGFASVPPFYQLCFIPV
Serine/threonine-protein phosphatase PP1-alpha catalytic subunit, sequence (P62136 whole entry): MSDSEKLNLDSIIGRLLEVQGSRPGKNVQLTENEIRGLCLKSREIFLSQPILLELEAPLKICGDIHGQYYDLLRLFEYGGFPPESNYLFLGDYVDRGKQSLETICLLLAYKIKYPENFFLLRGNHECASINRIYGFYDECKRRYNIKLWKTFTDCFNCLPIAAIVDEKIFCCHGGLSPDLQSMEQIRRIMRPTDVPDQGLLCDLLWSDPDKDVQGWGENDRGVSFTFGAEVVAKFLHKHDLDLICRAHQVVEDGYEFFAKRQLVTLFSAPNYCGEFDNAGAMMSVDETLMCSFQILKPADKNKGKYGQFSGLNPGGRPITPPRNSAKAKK
Serine/threonine-protein phosphatase, sequence (Q9BPW0 whole entry): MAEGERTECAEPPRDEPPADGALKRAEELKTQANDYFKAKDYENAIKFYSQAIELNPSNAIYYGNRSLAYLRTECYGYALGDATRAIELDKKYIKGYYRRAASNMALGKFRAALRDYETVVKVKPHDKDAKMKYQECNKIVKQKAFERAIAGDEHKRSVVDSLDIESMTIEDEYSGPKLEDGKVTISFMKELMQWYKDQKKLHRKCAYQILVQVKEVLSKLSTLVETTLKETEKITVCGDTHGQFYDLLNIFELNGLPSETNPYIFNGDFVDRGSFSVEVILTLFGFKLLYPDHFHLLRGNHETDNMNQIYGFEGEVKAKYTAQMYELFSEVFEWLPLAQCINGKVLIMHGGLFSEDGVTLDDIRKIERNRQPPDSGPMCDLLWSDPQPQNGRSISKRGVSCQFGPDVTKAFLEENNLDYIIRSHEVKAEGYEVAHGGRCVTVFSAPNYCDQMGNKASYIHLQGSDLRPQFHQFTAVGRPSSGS
Oxytocin receptor, sequence (P30559 whole entry): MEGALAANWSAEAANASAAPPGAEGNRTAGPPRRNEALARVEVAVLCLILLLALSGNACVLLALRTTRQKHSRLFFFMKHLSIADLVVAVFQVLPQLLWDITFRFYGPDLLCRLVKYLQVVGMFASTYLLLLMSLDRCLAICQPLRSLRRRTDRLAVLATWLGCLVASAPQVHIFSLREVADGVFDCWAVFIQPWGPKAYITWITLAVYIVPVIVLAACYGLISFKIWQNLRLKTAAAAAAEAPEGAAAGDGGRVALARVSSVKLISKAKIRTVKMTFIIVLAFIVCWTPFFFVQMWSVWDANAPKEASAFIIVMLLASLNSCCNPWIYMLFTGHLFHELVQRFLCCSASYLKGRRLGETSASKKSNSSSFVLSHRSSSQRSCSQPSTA
Large T antigen, sequence (P03070 whole entry): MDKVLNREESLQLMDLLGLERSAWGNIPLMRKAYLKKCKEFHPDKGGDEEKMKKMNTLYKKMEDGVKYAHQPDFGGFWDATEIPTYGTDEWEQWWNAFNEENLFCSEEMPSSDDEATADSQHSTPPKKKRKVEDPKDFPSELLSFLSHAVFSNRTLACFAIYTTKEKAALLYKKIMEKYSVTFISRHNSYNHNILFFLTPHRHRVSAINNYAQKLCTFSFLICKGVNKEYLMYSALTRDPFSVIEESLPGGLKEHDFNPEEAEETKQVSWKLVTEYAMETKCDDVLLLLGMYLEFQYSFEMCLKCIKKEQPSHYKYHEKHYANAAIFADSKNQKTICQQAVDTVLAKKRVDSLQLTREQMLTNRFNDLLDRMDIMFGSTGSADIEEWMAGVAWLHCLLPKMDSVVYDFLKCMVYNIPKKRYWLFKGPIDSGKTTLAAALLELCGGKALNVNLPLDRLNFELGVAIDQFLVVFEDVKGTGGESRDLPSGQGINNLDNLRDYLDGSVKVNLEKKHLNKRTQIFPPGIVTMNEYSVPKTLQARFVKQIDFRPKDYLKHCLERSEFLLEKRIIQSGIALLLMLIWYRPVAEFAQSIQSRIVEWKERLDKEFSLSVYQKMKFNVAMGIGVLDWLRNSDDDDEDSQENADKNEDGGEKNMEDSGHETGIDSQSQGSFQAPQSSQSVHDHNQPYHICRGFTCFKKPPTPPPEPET
Sphingosine 1-phosphate receptor 1, sequence (P21453 whole entry): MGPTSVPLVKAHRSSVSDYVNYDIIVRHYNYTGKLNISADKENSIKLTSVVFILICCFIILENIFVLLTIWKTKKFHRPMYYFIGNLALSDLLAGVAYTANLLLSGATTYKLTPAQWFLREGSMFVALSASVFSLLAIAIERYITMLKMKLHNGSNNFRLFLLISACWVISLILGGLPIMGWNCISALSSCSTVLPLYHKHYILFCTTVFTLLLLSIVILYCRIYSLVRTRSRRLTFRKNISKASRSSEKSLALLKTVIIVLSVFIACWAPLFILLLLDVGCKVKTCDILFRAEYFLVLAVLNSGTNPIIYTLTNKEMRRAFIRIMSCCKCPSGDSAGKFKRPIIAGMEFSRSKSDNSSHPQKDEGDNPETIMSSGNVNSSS

On to `CCOC(=O)c1ccc2nc(Nc3nc4ccc(F)cc4s3)sc2c1`, for which the EC50 in experiment [1] is 33.6 µM (active). Further, the IC50 in experiment [2] was > 80 µM (inactive).

On to `COCCNC(=O)c1cnn2c(O)cc(C3CCN(C(=O)OC(C)(C)C)CC3)nc12`, for which the EC50 in [3] and in experiment [4] was > 55.7 µM (not active) throughout.

For the compound `O=C(c1ccc2c(c1)nc(S)n1c3ccccc3nc21)N1CCN(c2cccc(Cl)c2)CC1`, the EC50 in [5] was > 50 µM (active). For the same compound, in [6], the AC50 is 8.62 µM (active).

`COc1cc(/C=C2\SC(=S)N(NC(=O)c3cccnc3)C2=O)ccc1O`: the EC50 is 103 µM (active) in experiment [7] and 9.9 µM (active) in [10]. The MIC in [8] is > 37 µM (inconclusive). The 50% inhibitory concentration (IC50) in [9] is 8.49 µM (active).

Regarding `Cc1ccc(S(=O)(=O)Nc2cccc3ncccc23)s1`, the EC50 in [11] is 1.78 µM (active); in experiment [12], 11.3 µM (active); in [14], 10.3 µM (active); in experiment [15] it was 1.73 µM (active); in experiment [16] it was 1.46 µM (active); in experiment [19], 10.1 µM (active). The EC50 in [23] is 3.91 µM (active). In addition, the CC50 is 6.47 µM (active) in [13], 6.44 µM (active) in experiment [20], 6.97 µM (active) in experiment [21] and 4.2 µM (active) in experiment [22]. For the same compound, the IC50 in [17] was 0.611 µM (active); in [18], 1.19 µM (active); in experiment [24], 2.01 µM (active). For the same compound, the AC50 was 3.85 µM (active) in experiment [25] and 9.75 µM (active) in [26].

On to `CCOC(=O)/C(C#N)=C/C=C1/C=CC=CN1C`, for which the EC50 in experiment [27] is > 100 µM (active).

On to `Cc1ccc(-n2nc(C(=O)O)cc2-c2ccc(Cl)cc2)cc1`, for which the IC50 in experiment [28] was 9.65 µM (active); in experiment [29] it was > 67 µM (not active).

For the compound `CC(Oc1ccc(F)cc1)C(=O)Nc1ccc(S(=O)(=O)NC2=NCCCCC2)cc1` (stereo not given), the EC50 in experiment [30] and in experiment [31] was > 29.9 µM (not active) each time.

Take `O=C(CCc1ccc(O)cc1)c1c(O)cc(O)cc1O` [PHLORETIN]: the AC50 in experiment [32] is 25.1 µM (inconclusive); in experiment [33], 20 µM (inconclusive); in experiment [34], 39.8 µM (inconclusive); in [35] it was 12.6 µM (inconclusive).

One may read the EC50 as the concentration at which the effect is half-maximal. By IC50 is commonly meant the concentration that gives 50% inhibition. One may read the MIC as the least concentration at which growth counts as inhibited.
